Laboratory results as given in PMC11397358, “Cytotoxic Activity of Novel GnRH Analogs Conjugated with Mitoxantrone in Ovarian Cancer Cells” (Molecules, 2024).

Assays:
[1] = tested on: SKOV-3 cells; assay: TMRE-based detection of mitochondrial membrane potential (ΔΨm); format: cell-based, human; conditions: 1 μM, 72 h, fresh compound every 24 h; three independent experiments; p < 0.01 vs untreated
Source text: The apoptosis of SKOV3 cells by Con-3, Con-7 and mitoxantrone was further validated in a mitochondrial membrane potential (ΔΨm) assay, which utilizes the cell-permeable, cationic dye, tetramethylrhodamine ethyl ester (TMRE) to detect the ΔΨm. TMRE accumulates in healthy mitochondria with polarized membrane, but not in the mitochondria of apoptotic cells. Mitochondrial permeabilization and the loss of the mitochondrial transmembrane potential are associated with cell apoptosis and a drop in fluorescence of TMRE [40].
Figure 8 TMRE-based detection of mitochondrial membrane potential (ΔΨm) of SKOV-3 cells. The change in ΔΨm was detected using TMRE after treatment of SKOV3 cells with 1μM Con-3, Con-7 or mitoxantrone for 72 h. The TMRE fluorescence intensities are represented as histogram bars for results obtained in three independent experiments. […] The data are expressed as the mean ± SEM.
The reduced mitochondrial membrane potential (ΔΨm) that accompanies apoptosis was detected using the fluorescent dye, tetramethylrhodamine ethyl ester (TMRE) (Ex/Em: 530/580 nm), (Cayman, TMRE Mitochondrial Membrane Potential Assay Kit, Item No. 701310). SKOV-3 cells were grown on 60 mm tissue culture dishes to achieve ca. 60% confluence. Monolayers of these cells were treated for a total of 72 h using RPMI 1640 containing 1 μM each of Con-3, Con-7 or mitoxantrone. At the end of each consecutive 24 h treatment period, the test solutions were removed and replaced with new media containing fresh test compounds. After 72 h TMRE was added to each dish to a final concentration of 5 μM. After a 30 min exposure to TMRE, the media was removed so that the cell monolayers could be dispersed using 0.25% trypsin-EDTA. The resultant cell suspensions were subjected to centrifugation and repeated resuspension in a standard extracellular salt solution (SES). […] The TMRE fluorescence intensities monitored from the individual wells were measured using a Flexstation 3 microplate reader (Molecular Devices, Sunnyvale, CA, USA).

[2] = tested on: SKOV-3 cells; assay: Confocal microscopy of intracellular mitoxantrone fluorescence, quantified with Image J; format: cell-based, human; conditions: 6 h; for localization of mitoxantrone fluorescence, in words: 1 μM, Hoechst nuclear stain; for effect of cisplatin on intracellular accumulation of mitoxantrone, in words: 1 μΜ, cisplatin 30 μg/mL for 1 h before treatment
Source text: To determine the accumulation of mitoxantrone within the SKOV-3 cells, we used confocal microscopy, exploiting the ability of mitoxantrone to fluoresce. Specifically, the excitation maxima of mitoxantrone are at 610 and 660 nm, whereas its emission maximum is at 685 nm. To stain the nuclei, we used the Hoechst dye. […] In contrast, the fluorescence signal was absent in untreated cells.
(§1) Figure 9 Confocal microscopy images of SKOV-3 cells treated with or without the GnRH-mitoxantrone conjugates, Con-3, Con-7 or mitoxantrone at a concentration of 1 μΜ for 6 h at 37 °C. At the end of the incubation, the cell nuclei were stained with the DNA-staining Hoechst 33342 dye and confocal fluorescent images were obtained after sequential excitation at 350 nm (for the Hoechst dye) and 638 nm (for the mitoxantrone). The emission filters of 461 nm and 650 nm–700 nm were used for collecting blue (Hoechst dye) and red (mitoxantrone) signals in separate channels. The left images show the nuclei staining with Hoechst dye (blue), whereas the middle ones depict the mitoxantrone fluorescence (red). The right images were created by merging the […] and middle ones and depict the localization of mitoxantrone (red) in both the cytoplasm and the nuclei. The figures are shown from a representative experiment performed three times with similar results.
We hypothesized that the GnRH-conjugated mitoxantrone of Con-3 and Con-7 entered the SKOV-3 cells after the reduction in the disulfide bond linking the GnRH analogs with mitoxantrone and subsequent release of the latter from the conjugates. This chemical reaction could be accomplished by the thioredoxin system, which is overexpressed in cancer cells and reduces the disulfide bonds of proteins and peptides. To verify this hypothesis, we incubated the SKOV-3 cells with cisplatin at a concentration of 30 μg/mL for 1 h before treating them with Con-3 or Con-7 conjugates. Cisplatin is a potent inhibitor of the thioredoxin system.
as §1, with “Figure 10” for “Figure 9”, “with” for “with or without”, “conjugates, Con-3 or” for “conjugates, Con-3,”, “Con-7 (1” for “Con-7 or mitoxantrone at a concentration of 1”, “6 h)” for “6 h”, “37 °C, in the presence or absence of cisplatin. Cisplatin was added to the cells 1 h before their incubation with the GnRH-mitoxantrone conjugates.” for “37 °C.”
Figure 11 Confocal microscopy images of SKOV-3 cells treated with mitoxantrone (1 μΜ for 6 h) at 37 °C, in the presence or absence of cisplatin. Cisplatin was added to the cells 1 h before their incubation with mitoxantrone. At the end of the incubation, the cell nuclei were stained with the DNA-staining Hoechst 33342 dye and confocal fluorescent images were obtained after sequential excitation at 350 nm (for the Hoechst dye) and 638 nm (for the mitoxantrone). The emission filters of 461 nm and 650 nm–700 nm were used for collecting blue (Hoechst dye) and red (mitoxantrone) signals in separate channels. The left images show the nuclei staining with Hoechst dye (blue), whereas the middle ones depict the mitoxantrone fluorescence (red). […]

SMILES | TMRE accumulation / fluorescence (mitochondrial membrane potential), in words [1] | localization of mitoxantrone fluorescence, in words [2] | effect of cisplatin on intracellular accumulation of mitoxantrone, in words [2]
CCNC(=O)[C@@H]1CCCN1C(=O)[C@H](CCCNC(=N)N)NC(=O)[C@H](CC(C)C)NC(=O)[C@@H](CSSCCC(=O)OCCNCCNc1ccc(NCCNCCO)c2c1C(=O)c1c(O)ccc(O)c1C2=O)NC(=O)[C@H](Cc1ccc(O)cc1)NC(=O)[C@H](CO)NC(=O)[C@H](Cc1c[nH]c2ccccc12)NC(=O)[C@H](Cc1c[nH]cn1)NC(=O)[C@@H]1CCC(=O)N1 [Con-3] | significantly reduced the accumulation of the TMRE | detected in both the cytoplasm and nucleus | abolished the accumulation of mitoxantrone
CCNC(=O)[C@@H]1CCCN1C(=O)[C@H](CCCNC(=N)N)NC(=O)[C@H](CC(C)C)NC(=O)[C@@H](CCCCNC(=O)CCCCCNC(=O)CCSSCC(=O)OCCNCCNc1ccc(NCCNCCO)c2c1C(=O)c1c(O)ccc(O)c1C2=O)NC(=O)[C@H](Cc1ccc(O)cc1)NC(=O)[C@H](CO)NC(=O)[C@H](Cc1c[nH]c2ccccc12)NC(=O)[C@H](Cc1c[nH]cn1)NC(=O)[C@@H]1CCC(=O)N1 [Con-7] | significantly reduced the accumulation of the TMRE | detected in both the cytoplasm and nucleus | abolished the accumulation of mitoxantrone
O=C1c2c(O)ccc(O)c2C(=O)c2c(NCCNCCO)ccc(NCCNCCO)c21 [mitoxantrone] | significantly reduced the accumulation of the TMRE | detected in both the cytoplasm and nucleus | did not affect the intracellular accumulation
